test system: Ascia monuste; test: Insecticidal activity against second-instar larval stage of Ascia monuste orseis assessed as mortality at 5 ug/mg applied topically on thoracic tergite after 24 hr (reference value: 1.7%); format: functional

Compound | mortality [%]
COC(=O)[C@H]1[C@H](/C=C/c2ccc(Br)cc2)C1(C)C | 85
COC(=O)[C@H]1[C@H](/C=C\c2ccc(Cl)cc2)C1(C)C | 90
COC(=O)[C@H]1[C@H](/C=C/c2ccc(Cl)cc2)C1(C)C | 82.5
COC(=O)[C@H]1[C@H](/C=C\c2ccc(F)cc2)C1(C)C | 92.5
COC(=O)[C@H]1[C@H](/C=C/c2ccc(F)cc2)C1(C)C | 90
COC(=O)[C@H]1[C@H](/C=C\c2ccccc2)C1(C)C | 50
COC(=O)[C@H]1[C@H](/C=C/c2ccccc2)C1(C)C | 50
COC(=O)[C@H]1[C@H](/C=C\c2ccc([N+](=O)[O-])cc2)C1(C)C | 45
COC(=O)[C@H]1[C@H](/C=C/c2ccc([N+](=O)[O-])cc2)C1(C)C | 36.4
COC(=O)[C@H]1[C@H](/C=C\c2ccc(Br)cc2)C1(C)C | 85
CC1(C)C(C=C(Cl)Cl)C1C(=O)OCc1cccc(Oc2ccccc2)c1 (stereo not given) [PERMETHRIN] | 100

test system: Tuta absoluta; test: Insecticidal activity against second-instar larval stage of Tuta absoluta assessed as mortality at 5 ug/mg applied topically on thoracic tergite after 12 hr (reference value: 1.7%); format: functional

Compound | mortality [%]
COC(=O)[C@H]1[C@H](/C=C/c2ccc(Br)cc2)C1(C)C | 15
COC(=O)[C@H]1[C@H](/C=C\c2ccc(Cl)cc2)C1(C)C | 100
COC(=O)[C@H]1[C@H](/C=C/c2ccc(Cl)cc2)C1(C)C | 67.5
COC(=O)[C@H]1[C@H](/C=C\c2ccc(F)cc2)C1(C)C | 87.5
COC(=O)[C@H]1[C@H](/C=C/c2ccc(F)cc2)C1(C)C | 60
COC(=O)[C@H]1[C@H](/C=C\c2ccccc2)C1(C)C | 12.5
COC(=O)[C@H]1[C@H](/C=C/c2ccccc2)C1(C)C | 12.5
COC(=O)[C@H]1[C@H](/C=C\c2ccc([N+](=O)[O-])cc2)C1(C)C | 42.5
COC(=O)[C@H]1[C@H](/C=C/c2ccc([N+](=O)[O-])cc2)C1(C)C | 35
COC(=O)[C@H]1[C@H](/C=C\c2ccc(Br)cc2)C1(C)C | 15.6
CC1(C)C(C=C(Cl)Cl)C1C(=O)OCc1cccc(Oc2ccccc2)c1 (stereo not given) [PERMETHRIN] | 93.2

test system: Tuta absoluta; test: Insecticidal activity against second-instar larval stage of Tuta absoluta assessed as mortality at 5 ug/mg applied topically on thoracic tergite after 24 hr (reference value: 1.7%); format: functional

Compound | mortality [%]
COC(=O)[C@H]1[C@H](/C=C/c2ccc(Br)cc2)C1(C)C | 25
COC(=O)[C@H]1[C@H](/C=C\c2ccc(Cl)cc2)C1(C)C | 100
COC(=O)[C@H]1[C@H](/C=C/c2ccc(Cl)cc2)C1(C)C | 72.5
COC(=O)[C@H]1[C@H](/C=C\c2ccc(F)cc2)C1(C)C | 90
COC(=O)[C@H]1[C@H](/C=C/c2ccc(F)cc2)C1(C)C | 77.5
COC(=O)[C@H]1[C@H](/C=C\c2ccccc2)C1(C)C | 21.9
COC(=O)[C@H]1[C@H](/C=C/c2ccccc2)C1(C)C | 21.9
COC(=O)[C@H]1[C@H](/C=C\c2ccc([N+](=O)[O-])cc2)C1(C)C | 67.5
COC(=O)[C@H]1[C@H](/C=C/c2ccc([N+](=O)[O-])cc2)C1(C)C | 55
COC(=O)[C@H]1[C@H](/C=C\c2ccc(Br)cc2)C1(C)C | 18.1
CC1(C)C(C=C(Cl)Cl)C1C(=O)OCc1cccc(Oc2ccccc2)c1 (stereo not given) [PERMETHRIN] | 97.5

test system: Sitophilus zeamais; test: Insecticidal activity against […] Sitophilus zeamais assessed as mortality at 5 ug/mg applied topically on thoracic tergite after 12 hr relative to control; format: functional

Compound | mortality [%]
COC(=O)[C@H]1[C@H](/C=C/c2ccc(Br)cc2)C1(C)C | 0
COC(=O)[C@H]1[C@H](/C=C\c2ccc(Cl)cc2)C1(C)C | 0
COC(=O)[C@H]1[C@H](/C=C/c2ccc(Cl)cc2)C1(C)C | 0
COC(=O)[C@H]1[C@H](/C=C\c2ccc(F)cc2)C1(C)C | 7.5
COC(=O)[C@H]1[C@H](/C=C/c2ccc(F)cc2)C1(C)C | 5
COC(=O)[C@H]1[C@H](/C=C\c2ccccc2)C1(C)C | 10
COC(=O)[C@H]1[C@H](/C=C/c2ccccc2)C1(C)C | 10
COC(=O)[C@H]1[C@H](/C=C\c2ccc([N+](=O)[O-])cc2)C1(C)C | 0
COC(=O)[C@H]1[C@H](/C=C/c2ccc([N+](=O)[O-])cc2)C1(C)C | 0
COC(=O)[C@H]1[C@H](/C=C\c2ccc(Br)cc2)C1(C)C | 0
CC1(C)C(C=C(Cl)Cl)C1C(=O)OCc1cccc(Oc2ccccc2)c1 (stereo not given) [PERMETHRIN] | 17.5

test system: Musca domestica; test: Insecticidal activity against second-instar larval stage of Musca domestica (house fly) assessed as mortality at 5 ug/mg applied topically on thoracic tergite after 24 hr relative to control; format: functional

Compound | mortality [%]
COC(=O)[C@H]1[C@H](/C=C/c2ccc(Br)cc2)C1(C)C | 22.5
COC(=O)[C@H]1[C@H](/C=C\c2ccc(Cl)cc2)C1(C)C | 25
COC(=O)[C@H]1[C@H](/C=C/c2ccc(Cl)cc2)C1(C)C | 22.5
COC(=O)[C@H]1[C@H](/C=C\c2ccc(F)cc2)C1(C)C | 15
COC(=O)[C@H]1[C@H](/C=C/c2ccc(F)cc2)C1(C)C | 15
COC(=O)[C@H]1[C@H](/C=C\c2ccccc2)C1(C)C | 12.5
COC(=O)[C@H]1[C@H](/C=C/c2ccccc2)C1(C)C | 12.5
COC(=O)[C@H]1[C@H](/C=C\c2ccc([N+](=O)[O-])cc2)C1(C)C | 27.5
COC(=O)[C@H]1[C@H](/C=C/c2ccc([N+](=O)[O-])cc2)C1(C)C | 25
COC(=O)[C@H]1[C@H](/C=C\c2ccc(Br)cc2)C1(C)C | 25
CC1(C)C(C=C(Cl)Cl)C1C(=O)OCc1cccc(Oc2ccccc2)c1 (stereo not given) [PERMETHRIN] | 72.5

test system: Ascia monuste; test: Insecticidal activity against second-instar larval stage of Ascia monuste orseis assessed as mortality at 5 ug/mg applied topically on thoracic tergite after 12 hr relative to control; format: functional

Compound | mortality [%]
COC(=O)[C@H]1[C@H](/C=C/c2ccc(Br)cc2)C1(C)C | 5
COC(=O)[C@H]1[C@H](/C=C\c2ccc(Cl)cc2)C1(C)C | 85
COC(=O)[C@H]1[C@H](/C=C/c2ccc(Cl)cc2)C1(C)C | 80
COC(=O)[C@H]1[C@H](/C=C\c2ccc(F)cc2)C1(C)C | 67.5
COC(=O)[C@H]1[C@H](/C=C/c2ccc(F)cc2)C1(C)C | 65
COC(=O)[C@H]1[C@H](/C=C\c2ccccc2)C1(C)C | 7.5
COC(=O)[C@H]1[C@H](/C=C/c2ccccc2)C1(C)C | 7.5
COC(=O)[C@H]1[C@H](/C=C\c2ccc([N+](=O)[O-])cc2)C1(C)C | 20
COC(=O)[C@H]1[C@H](/C=C/c2ccc([N+](=O)[O-])cc2)C1(C)C | 2.5
COC(=O)[C@H]1[C@H](/C=C\c2ccc(Br)cc2)C1(C)C | 15
CC1(C)C(C=C(Cl)Cl)C1C(=O)OCc1cccc(Oc2ccccc2)c1 (stereo not given) [PERMETHRIN] | 100

test system: Periplaneta americana; test: Insecticidal activity against second-instar nymph stage of Periplaneta americana (American cockroach) assessed as mortality at 5 ug/mg applied topically on thoracic tergite after 24 hr (reference value: 1.7%); format: functional

Compound | mortality [%]
COC(=O)[C@H]1[C@H](/C=C/c2ccc(Br)cc2)C1(C)C | 65
COC(=O)[C@H]1[C@H](/C=C\c2ccc(Cl)cc2)C1(C)C | 100
COC(=O)[C@H]1[C@H](/C=C/c2ccc(Cl)cc2)C1(C)C | 95
COC(=O)[C@H]1[C@H](/C=C\c2ccc(F)cc2)C1(C)C | 67.5
COC(=O)[C@H]1[C@H](/C=C/c2ccc(F)cc2)C1(C)C | 67.5
COC(=O)[C@H]1[C@H](/C=C\c2ccccc2)C1(C)C | 37.4
COC(=O)[C@H]1[C@H](/C=C/c2ccccc2)C1(C)C | 37.4
COC(=O)[C@H]1[C@H](/C=C\c2ccc([N+](=O)[O-])cc2)C1(C)C | 24.3
COC(=O)[C@H]1[C@H](/C=C/c2ccc([N+](=O)[O-])cc2)C1(C)C | 20
COC(=O)[C@H]1[C@H](/C=C\c2ccc(Br)cc2)C1(C)C | 72.5
CC1(C)C(C=C(Cl)Cl)C1C(=O)OCc1cccc(Oc2ccccc2)c1 (stereo not given) [PERMETHRIN] | 97.5

test system: Periplaneta americana; test: Insecticidal activity against second-instar nymph stage of Periplaneta americana (American cockroach) assessed as mortality at 5 ug/mg applied topically on thoracic tergite after 12 hr (reference value: 1.7%); format: functional

Compound | mortality [%]
COC(=O)[C@H]1[C@H](/C=C/c2ccc(Br)cc2)C1(C)C | 55
COC(=O)[C@H]1[C@H](/C=C\c2ccc(Cl)cc2)C1(C)C | 92.5
COC(=O)[C@H]1[C@H](/C=C/c2ccc(Cl)cc2)C1(C)C | 87.5
COC(=O)[C@H]1[C@H](/C=C\c2ccc(F)cc2)C1(C)C | 65
COC(=O)[C@H]1[C@H](/C=C/c2ccc(F)cc2)C1(C)C | 62.5
COC(=O)[C@H]1[C@H](/C=C\c2ccccc2)C1(C)C | 15.6
COC(=O)[C@H]1[C@H](/C=C/c2ccccc2)C1(C)C | 15.6
COC(=O)[C@H]1[C@H](/C=C\c2ccc([N+](=O)[O-])cc2)C1(C)C | 10.9
COC(=O)[C@H]1[C@H](/C=C/c2ccc([N+](=O)[O-])cc2)C1(C)C | 10
COC(=O)[C@H]1[C@H](/C=C\c2ccc(Br)cc2)C1(C)C | 70
CC1(C)C(C=C(Cl)Cl)C1C(=O)OCc1cccc(Oc2ccccc2)c1 (stereo not given) [PERMETHRIN] | 87.5

test system: Sitophilus zeamais; test: Insecticidal activity against […] Sitophilus zeamais assessed as mortality at 5 ug/mg applied topically on thoracic tergite after 24 hr relative to control; format: functional

Compound | mortality [%]
COC(=O)[C@H]1[C@H](/C=C/c2ccc(Br)cc2)C1(C)C | 0
COC(=O)[C@H]1[C@H](/C=C\c2ccc(Cl)cc2)C1(C)C | 0
COC(=O)[C@H]1[C@H](/C=C/c2ccc(Cl)cc2)C1(C)C | 0
COC(=O)[C@H]1[C@H](/C=C\c2ccc(F)cc2)C1(C)C | 10
COC(=O)[C@H]1[C@H](/C=C/c2ccc(F)cc2)C1(C)C | 7.5
COC(=O)[C@H]1[C@H](/C=C\c2ccccc2)C1(C)C | 12.5
COC(=O)[C@H]1[C@H](/C=C/c2ccccc2)C1(C)C | 12.5
COC(=O)[C@H]1[C@H](/C=C\c2ccc([N+](=O)[O-])cc2)C1(C)C | 0
COC(=O)[C@H]1[C@H](/C=C/c2ccc([N+](=O)[O-])cc2)C1(C)C | 0
COC(=O)[C@H]1[C@H](/C=C\c2ccc(Br)cc2)C1(C)C | 0
CC1(C)C(C=C(Cl)Cl)C1C(=O)OCc1cccc(Oc2ccccc2)c1 (stereo not given) [PERMETHRIN] | 17.5

test system: Musca domestica; test: Insecticidal activity against second-instar larval stage of Musca domestica (house fly) assessed as mortality at 5 ug/mg applied topically on thoracic tergite after 12 hr relative to control; format: functional

Compound | mortality [%]
COC(=O)[C@H]1[C@H](/C=C/c2ccc(Br)cc2)C1(C)C | 12.5
COC(=O)[C@H]1[C@H](/C=C\c2ccc(Cl)cc2)C1(C)C | 20
COC(=O)[C@H]1[C@H](/C=C/c2ccc(Cl)cc2)C1(C)C | 17.5
COC(=O)[C@H]1[C@H](/C=C\c2ccc(F)cc2)C1(C)C | 12.5
COC(=O)[C@H]1[C@H](/C=C/c2ccc(F)cc2)C1(C)C | 10
COC(=O)[C@H]1[C@H](/C=C\c2ccccc2)C1(C)C | 7.5
COC(=O)[C@H]1[C@H](/C=C/c2ccccc2)C1(C)C | 7.5
COC(=O)[C@H]1[C@H](/C=C\c2ccc([N+](=O)[O-])cc2)C1(C)C | 20
COC(=O)[C@H]1[C@H](/C=C/c2ccc([N+](=O)[O-])cc2)C1(C)C | 17.5
COC(=O)[C@H]1[C@H](/C=C\c2ccc(Br)cc2)C1(C)C | 15
CC1(C)C(C=C(Cl)Cl)C1C(=O)OCc1cccc(Oc2ccccc2)c1 (stereo not given) [PERMETHRIN] | 72.5

Source: ChEMBL document CHEMBL3045231, “Synthesis and insecticidal activity of new pyrethroids” (2009)
